US8426448B2, “1,5-diphenyl-pyrrolidin-2-one compounds as CB-1 ligands” (Eli Lilly and Company, priority 2008, dated 2013)
Structures can show the parent of a compound that is named as a salt.

Key:
hCB-1 [1] = target: T1, hCB-1 (Homo sapiens, UniProt P21554); test: hCB1-CHO agonist mode SPA GTP-γ-35S binding assay; type: biochemical; design: purchased Applied Cell Sciences, Rockville, Md; host or cells: CHO cell membranes; conditions: inverse agonism, read-out: hCB-1 SPA GTPγS CHO Membrane Agonist Relative EC50 inverse
Method: Compounds of the present invention may be tested for functional activity at the CB-1 and CB-2 receptors in both agonist and antagonist modes using SPA (Scintillation Proximity Assay) based GTP-γ-^35S binding assays. All assay components are prepared in assay buffer (20 mM HEPES, 100 mM NaCl, 5 mM MgCl2, pH 7.4) at room temperature. Semi-log dilutions of test compound are prepared in assay buffer containing BSA (0.125% final conc.) for the agonist mode assays. For the antagonist mode assays, test compounds are prepared in the same manner but also include an 80% efficacious dose of a full agonist (methanandamide). GTP-γ^35S binding for the antagonist assay may be measured in a 96 well format using a modification of an antibody capture technique previously described. (DeLapp, N W, et al. (1999) J Pharmacol Exp Ther 289:946-955.) The CB-2 receptor agonist activity may be measured using a similar method using hCB2-Sf9 membranes. The CB-1 receptor agonist activity may be measured using a whole membrane capture technique using hCB1-CHO membranes. All incubations are done at room temperature.
hCB1-CHO membrane, GDP (1 μM final conc.), and saponin (10 μg/mL final conc., Sigma, St Louis, Mo.) are combined and prepared on ice as for the antagonist assays, above. Diluted test compounds, GTP-γ-^35S ([…] final conc.) and membranes are combined in the assay plate and incubated for 30 min. Then 1 mg/well Wheatgerm Agglutinin SPA beads (GE Healthcare, Piscataway, N.J.) are added, plates are sealed and vortexed and incubate for 1 hr. before spinning and counting in the same fashion as for the antagonist assays, above.
Data are analyzed as follows: Background is subtracted from all wells. Percent agonist efficacy is determine by normalizing agonist/inverse agonist dose response data to the response obtained for a full agonist (methanandamide). Percent antagonist inhibition is calculated by first normalizing the data to the signal generated by a saturating concentration of the full agonist (methanandamide). Then the data are analyzed using a 4-parameter logistic reduced fit (Activity Base™ and XLFit3™ from IDBS, Emeryville, Calif.). Kb values are determined using a modification of the Cheng-Prusoff relationship: Kb=IC50/(1+[agonist]/EC50), where “IC50” is determined from a four parameter fit of displacement curves, “[agonist]” is the agonist challenge concentration (nM), and “EC50” is determined from a four parameter fit of a full agonist concentration response curve (Cheng and Prusoff 1973). Mean Kb values are calculated as a mean of at least three independent determinations±standard error of the mean (SEM). […]

CYP2D6 = target: T2, CYP2D6 (Homo sapiens, UniProt P10635); test: Human CYP fingerprinting, quinidine inhibition; type: in vitro ADME; conditions: 4 μM, human liver microsomes, 30 min, 10 μM quinidine
T2 construct: pooled, mixed gender, human liver microsomes; from tissue; host or cells: pooled, mixed gender human liver microsomes
Method: CYP fingerprinting is well established technique and is used as an indication of potential risk of drug-drug interactions in the pharmaceutical sciences. Compounds of the present invention may be assayed by well known methods, essentially as follows: Compounds are incubated at 37° C. at a final concentration of 4 μM with pooled, mixed gender, human liver microsomes and 1 mM NADPH (Nicotine Adenine Dinucleotide Phosphate) (final conc.) for 0 and 30 min. without any CYP inhibitor and with each CYP inhibitor in separate incubations for 30 min. Each inhibitor is specific for an individual cytochrome P450. The specific inhibitors used for CYPs 2C9, 2D6 and 3A were sulfaphenazole, quinidine and ketoconazole, respectively. Ketoconazole (CYP3A) is made up at 25 mM in DMSO and then diluted in buffer to a final concentration of 10 μM. Quinidine (CYP2D6) is made up at 5 mM in 50/50 acetonitrile/water and then diluted in buffer to a final concentration of 10 μM. Sulfaphenazole (CYP2C9) is made up at 100 mM in DMSO and then diluted in buffer to a final concentration of 5 μM. Samples are analyzed by LC-MS in positive or negative electrospray mode using a Waters Acquity Ultra Performance LC coupled to a MicroMass Q-T of-2 mass spectrometer.
Data are analyzed using MetaboLynx™ version 4.1. […]

hCB-1 [2] = target: T1, hCB-1; test: hCB1-Sf9 antagonist mode SPA GTP-γ-35S binding assay; type: biochemical; design: purchased Applied Cell Sciences, Rockville, Md; conditions: Sf9 membrane 22.7 μg; antagonist mode vs methanandamide; read-out: hCB-1 SPA GTPγS Sf9 Membrane 22.7 μg Antagonist Kb
Method: Compounds of the present invention may be tested for functional activity at the CB-1 and CB-2 receptors in both agonist and antagonist modes using SPA (Scintillation Proximity Assay) based GTP-γ-^35S binding assays. All assay components are prepared in assay buffer (20 mM HEPES, 100 mM NaCl, 5 mM MgCl2, pH 7.4) at room temperature. Semi-log dilutions of test compound are prepared in assay buffer containing BSA (0.125% final conc.) for the agonist mode assays. For the antagonist mode assays, test compounds are prepared in the same manner but also include an 80% efficacious dose of a full agonist (methanandamide). GTP-γ^35S binding for the antagonist assay may be measured in a 96 well format using a modification of an antibody capture technique previously described. (DeLapp, N W, et al. (1999) J Pharmacol Exp Ther 289:946-955.) The CB-2 receptor agonist activity may be measured using a similar method using hCB2-Sf9 membranes. The CB-1 receptor agonist activity may be measured using a whole membrane capture technique using hCB1-CHO membranes. All incubations are done at room temperature. […]
Data are analyzed as follows: Background is subtracted from all wells. […] Percent antagonist inhibition is calculated by first normalizing the data to the signal generated by a saturating concentration of the full agonist (methanandamide). Then the data are analyzed using a 4-parameter logistic reduced fit (Activity Base™ and XLFit3™ from IDBS, Emeryville, Calif.). Kb values are determined using a modification of the Cheng-Prusoff relationship: Kb=IC50/(1+[agonist]/EC50), where “IC50” is determined from a four parameter fit of displacement curves, “[agonist]” is the agonist challenge concentration (nM), and “EC50” is determined from a four parameter fit of a full agonist concentration response curve (Cheng and Prusoff 1973). Mean Kb values are calculated as a mean of at least three independent determinations±standard error of the mean (SEM). […]

T1 sequence (P21554 whole entry): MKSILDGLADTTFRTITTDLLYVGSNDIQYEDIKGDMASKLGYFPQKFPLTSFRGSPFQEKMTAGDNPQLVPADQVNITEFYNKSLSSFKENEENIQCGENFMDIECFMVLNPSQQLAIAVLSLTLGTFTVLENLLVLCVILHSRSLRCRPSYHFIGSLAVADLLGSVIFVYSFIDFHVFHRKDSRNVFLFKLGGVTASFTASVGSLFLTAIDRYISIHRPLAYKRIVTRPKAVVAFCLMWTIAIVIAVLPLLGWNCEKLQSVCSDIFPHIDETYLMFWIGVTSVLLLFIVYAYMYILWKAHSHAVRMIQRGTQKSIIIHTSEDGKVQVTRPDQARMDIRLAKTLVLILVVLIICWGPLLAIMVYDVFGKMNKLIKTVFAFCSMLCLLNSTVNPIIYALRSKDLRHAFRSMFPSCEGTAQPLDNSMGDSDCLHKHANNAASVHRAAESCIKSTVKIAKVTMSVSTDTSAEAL
T2 sequence (P10635 whole entry): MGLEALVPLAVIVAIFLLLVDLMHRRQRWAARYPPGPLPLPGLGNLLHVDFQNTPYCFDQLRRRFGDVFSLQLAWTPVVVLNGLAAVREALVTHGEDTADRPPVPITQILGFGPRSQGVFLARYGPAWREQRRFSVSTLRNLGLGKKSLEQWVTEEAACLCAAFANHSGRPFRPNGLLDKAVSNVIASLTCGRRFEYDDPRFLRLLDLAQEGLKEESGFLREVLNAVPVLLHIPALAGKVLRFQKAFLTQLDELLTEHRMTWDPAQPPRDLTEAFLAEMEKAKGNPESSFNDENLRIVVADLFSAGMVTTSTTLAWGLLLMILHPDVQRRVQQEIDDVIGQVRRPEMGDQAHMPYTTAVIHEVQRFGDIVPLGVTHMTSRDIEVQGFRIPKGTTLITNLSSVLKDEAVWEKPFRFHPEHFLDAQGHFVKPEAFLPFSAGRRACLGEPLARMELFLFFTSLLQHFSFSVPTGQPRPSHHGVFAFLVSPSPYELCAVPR

EC50 (hCB-1 [1]): 1.27 nM
Risk of Drug Drug Interaction (DDI) CYP2D6 (CYP2D6): Low
Kb (hCB-1 [2]): 0.59 nM
SMILES: CC(C)(N[C@@H]1C[C@H](c2cccc(C(F)(F)F)c2)N(c2ccc(OC(F)(F)F)cc2)C1=O)c1cccc(C(F)(F)F)n1 [28 HCl salt, (3R,5R)-3-[1-methyl-1-(6-trifluoromethyl-pyridin-2-yl)-ethylamino]-1-(4-trifluoromethoxy-phenyl)-5-(3-trifluoromethyl-phenyl)-pyrrolidin-2-one]
